Like-named read-outs stand apart in the source and are kept apart here.
Assays:
Type in all cases: biochemical
human CSNK1A1 [1] = molecular target: T1, human CSNK1A1 (Homo sapiens (Human), UniProt P48729); assay: CSNK1A1 High ATP Assay (ADP-Glo, 1 mM ATP); conditions: read-out: CSNK1A1 high ATP assay IC50 [mol/l] (median)
In short: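 Kinase activity taken as ADP generated, quantified by ADP-Glo luminescence after 1 h ATP depletion and 1 h detection at 22 °C. Enzyme is GST–full-length human CSNK1A1 (insect cell-expressed), pre-bound to compound for 15 min, with phosphopeptide substrate and 1 mM ATP.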

[2] = molecular target: wild-type Epidermal Growth Factor Receptor (EGFR) (Homo sapiens (Human), UniProt P00533); assay: WT-EGFR Kinase Assay (TR-FRET, 2 mM ATP)
human CSNK1A1 [3] = molecular target: T1, human CSNK1A1; assay: CSNK1A1 Assay 2 (ADP-Glo, 1 μM ATP); conditions: substrate biotin-Ahx-KRRRAL-pS-VASLPGL, read-out: CSNK1A1 Assay 2 IC50 [mol/l] (median)
In short: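 Full-length human CSNK1A1 as an N-terminal GST fusion (baculovirus/insect cells) with biotinylated peptide substrate biotin-Ahx-KRRRAL-pS-VASLPGL and 1 μM ATP, in HEPES pH 7.5 buffer. Compounds were pre-incubated with enzyme (~0.0375 ng/μL) for 15 min at 22 °C. Generated ADP was read by ADP-Glo luminescence as the activity measure.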

human CSNK1D = human CSNK1D (Homo sapiens (Human), UniProt P48730); assay: CSNK1D Assay (ADP-Glo, 1 μM ATP); conditions: read-out: CSNK1D IC50 [mol/l] (median)
In short: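 Activity is read as ADP produced, by ADP-Glo luminescence after 1 h steps at 22 °C. The reaction uses 1 μM ATP, a biotinylated peptide and insect-cell-expressed GST–CSNK1D (about 0.5 ng/μL) in pH 7.5 HEPES buffer, with 15 min compound–enzyme preincubation.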

[4] = EGFR Wildtyp- 2 mM ATP IC50 [mol/l] (median)
[5] = read-out: EGFR Wildtyp- 2 mM ATP IC50 [mol/l] (median)

Sequence of wild-type Epidermal Growth Factor Receptor (EGFR) (P00533 669-1210): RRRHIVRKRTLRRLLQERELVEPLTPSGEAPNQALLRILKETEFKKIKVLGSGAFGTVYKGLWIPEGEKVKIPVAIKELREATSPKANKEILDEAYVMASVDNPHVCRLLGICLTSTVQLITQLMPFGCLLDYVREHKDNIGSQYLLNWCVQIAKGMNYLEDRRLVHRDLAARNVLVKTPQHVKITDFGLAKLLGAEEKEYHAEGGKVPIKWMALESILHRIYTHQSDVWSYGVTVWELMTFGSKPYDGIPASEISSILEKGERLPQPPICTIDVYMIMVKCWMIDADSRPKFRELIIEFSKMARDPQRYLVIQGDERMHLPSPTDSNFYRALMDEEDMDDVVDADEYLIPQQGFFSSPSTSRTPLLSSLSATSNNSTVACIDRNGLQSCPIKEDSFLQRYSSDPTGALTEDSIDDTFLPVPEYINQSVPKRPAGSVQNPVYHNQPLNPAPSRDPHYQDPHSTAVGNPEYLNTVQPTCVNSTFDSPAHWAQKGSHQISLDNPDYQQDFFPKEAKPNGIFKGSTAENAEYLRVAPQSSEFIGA
T1 sequence (P48729 whole entry): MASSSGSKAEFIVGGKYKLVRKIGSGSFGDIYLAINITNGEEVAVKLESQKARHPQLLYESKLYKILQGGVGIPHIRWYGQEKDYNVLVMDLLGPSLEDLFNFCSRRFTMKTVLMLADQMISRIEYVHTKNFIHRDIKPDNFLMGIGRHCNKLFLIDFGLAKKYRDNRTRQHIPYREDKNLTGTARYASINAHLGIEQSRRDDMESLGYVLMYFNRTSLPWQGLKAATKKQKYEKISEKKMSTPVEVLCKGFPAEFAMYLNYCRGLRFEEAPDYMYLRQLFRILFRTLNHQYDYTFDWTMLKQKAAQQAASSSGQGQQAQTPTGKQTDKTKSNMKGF
Sequence of human CSNK1D (P48730 whole entry): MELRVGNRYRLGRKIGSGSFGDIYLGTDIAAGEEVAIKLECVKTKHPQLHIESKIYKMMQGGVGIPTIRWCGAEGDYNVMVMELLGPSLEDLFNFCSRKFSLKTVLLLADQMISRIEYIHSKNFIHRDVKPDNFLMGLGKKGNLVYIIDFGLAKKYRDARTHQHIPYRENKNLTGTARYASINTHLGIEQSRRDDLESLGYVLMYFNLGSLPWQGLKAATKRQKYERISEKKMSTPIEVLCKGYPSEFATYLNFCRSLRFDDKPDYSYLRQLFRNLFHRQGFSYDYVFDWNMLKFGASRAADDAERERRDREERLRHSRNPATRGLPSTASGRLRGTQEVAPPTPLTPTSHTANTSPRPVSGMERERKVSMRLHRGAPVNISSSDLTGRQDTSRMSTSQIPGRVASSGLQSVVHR

Row | Compound | IC50 (human CSNK1A1 [1]) | IC50 [2, 4] | IC50 (human CSNK1A1 [3]) | IC50 (human CSNK1D) | IC50 [2, 5]
1 | O=C(Cc1ccc(F)cc1)Nc1cc(-c2[nH]c3c(c2Nc2ccccc2)C(=O)NC(C(F)(F)F)C3)ccn1 (racemic) [Example 43, N-{4-[3-anilino-4-oxo-6-(trifluoromethyl)-4,5,6,7-tetrahydro-1H-pyrrolo[3,2-c]pyridin-2-yl]pyridin-2-yl}-2-(4-fluorophenyl)acetamide] | 67.5 nM | 2000 nM | 3.52 nM | 7.12 nM | 
2 | CC1Cc2[nH]c(-c3ccnc(NC(=O)Cc4ccc(F)cc4)c3)c(Nc3ccccc3F)c2C(=O)N1C (racemic) [Example 100, N-{4-[3-(2-fluoroanilino)-5,6-dimethyl-4-oxo-4,5,6,7-tetrahydro-1H-pyrrolo[3,2-c]pyridin-2-yl]pyridin-2-yl}-2-(4-fluorophenyl)acetamide] | 254 nM | 3830 nM | 3.97 nM | 15.6 nM | 
3 | O=C1NC2(CCC2)Cc2[nH]c(-c3ccnc(NC(=O)C(CC(F)F)c4ccc(F)cc4)c3)c(Nc3cccc(F)c3Cl)c21 (single isomer, unassigned; enantiomer 2) [Example 125, (+)-N-{4-[3′-(2-chloro-3-fluoroanilino)-4′-oxo-1′,4′,5′,7′-tetrahydrospiro[cyclobutane-1,6′-pyrrolo[3,2-c]pyridin]-2′-yl]pyridin-2-yl}-4,4-difluoro-2-(4-fluorophenyl)butanamide (Enantiomer 2)] | 12.1 nM |  | 10.5 nM | 9.39 nM | > 20000 nM
4 | CN1CCc2[nH]c(-c3ccnc(NC(=O)C(CC(F)F)c4ccccc4)c3)c(Nc3ccccc3)c2C1=O (centres unmarked) [Example 33, N-[4-(3-anilino-5-methyl-4-oxo-4,5,6,7-tetrahydro-1H-pyrrolo[3,2-c]pyridin-2-yl)pyridin-2-yl]-4,4-difluoro-2-phenylbutanamide] | 72.2 nM |  | 6.15 nM | 18.1 nM | > 20000 nM
5 | CN1CCc2[nH]c(-c3ccnc(NC(=O)Cc4cccc(C(F)(F)F)c4)c3)c(Nc3ccccc3)c2C1=O [Example 116, N-[4-(3-anilino-5-methyl-4-oxo-4,5,6,7-tetrahydro-1H-pyrrolo[3,2-c]pyridin-2-yl)pyridin-2-yl]-2-[3-(trifluoromethyl)phenyl]acetamide] | 453 nM |  | 18.6 nM | 54.4 nM | > 20000 nM
6 | CN1C(=O)c2c([nH]c(-c3ccnc(NC(=O)C(CC(F)F)c4ccc(F)cc4)c3)c2Nc2ccccc2F)CC1(C)C (single isomer, unassigned) [Example 47, 4,4-difluoro-N-{4-[3-(2-fluoroanilino)-5,6,6-trimethyl-4-oxo-4,5,6,7-tetrahydro-1H-pyrrolo[3,2-c]pyridin-2-yl]pyridin-2-yl}-2-(4-fluorophenyl)butanamide] | > 20000 nM |  | 163 nM | 151 nM | > 20000 nM
7 | CN1CCc2[nH]c(-c3ccnc(NC(=O)Cc4ccc(C(F)(F)F)cc4)c3)c(Nc3ccccc3)c2C1=O [Example 66, N-[4-(3-anilino-5-methyl-4-oxo-4,5,6,7-tetrahydro-1H-pyrrolo[3,2-c]pyridin-2-yl)pyridin-2-yl]-2-[4-(trifluoromethyl)phenyl]acetamide] | 33.5 nM |  | 2.75 nM | 5.57 nM | 8550 nM
8 | CC1(C)Cc2[nH]c(-c3ccnc(NC(=O)Cc4cccnc4)c3)c(Nc3ccccc3)c2C(=O)N1 [Example 52, N-[4-(3-anilino-6,6-dimethyl-4-oxo-4,5,6,7-tetrahydro-1H-pyrrolo[3,2-c]pyridin-2-yl)pyridin-2-yl]-2-(pyridin-3-yl)acetamide] | 25.4 nM |  | 4.91 nM | 6.78 nM | 526 nM
